Reference: ChEMBL document CHEMBL1133427, “Membrane-permeant, bioactivatable analogues of cGMP as inducers of cell death in IPC-81 leukemia cells” (Bioorg Med Chem Lett, 2000)
pEC50: −log10 of the molar value. Calls of active or inactive are those of the source. The calls are words filed in the database; no cut-off is given here.

Key:
Rattus norvegicus = organism: Rattus norvegicus; experiment: Compound was tested as initiator of cell death in IPC-81 leukemia cells; Inactive; assay type: functional, cell-based
[1] = Effective dose of compound required to induce death in IPC-81 leukemia cells; Range 40-80; assay type: functional, cell-based, Rattus norvegicus

Row | SMILES | Activity (Rattus norvegicus) | pEC50 [1]
1 | CC(=O)OCOP1(=O)OC[C@@H]2O[C@@H](n3c(Br)nc4c(O)nc(N)nc43)[C@H](O)[C@@H]2O1 (stereo partly specified) | inactive | 4.10
2 | CC(=O)OCOP1(=O)OCC2OC(n3cnc4c(=O)n(C)c(N)nc43)CC(O)C2O1 (stereo unspecified) | inactive | –
3 | CC(=O)OCOP1(=O)OC[C@@H]2O[C@@H](N3C(Sc4ccc(Cl)cc4)=NC4C(=O)N=C(N)N=C43)[C@H](O)[C@@H]2O1 (stereo partly specified) | inactive | –
4 | CC(=O)OCOP1(=O)OC[C@@H]2O[C@@H](n3cnc4c(=O)n(C)c(N)nc43)[C@H](O)[C@@H]2O1 (stereo partly specified) | inactive | 4.10
